ChEMBL document CHEMBL3885881, “DrugMatrix”

Species: Rattus norvegicus
Experiment: DrugMatrix - Regimen: Daily Repeat
Assay type: toxicity, organism-based, Sprague-Dawley
Set-up: regimen Daily Repeat, gender Male, age 6-8 weeks
Conditions: in vivo, po, route oral GAVAGE, vehicle 100 % WATER; for ABSOLUTE BASOPHIL / ABSOLUTE EOSINOPHIL / ABSOLUTE LYMPHOCYTE / ABSOLUTE MONOCYTE / ABSOLUTE SEGMENTED NEUTROPHIL / BASOPHIL / EOSINOPHIL / ERYTHROCYTE COUNT / HEMATOCRIT / HEMOGLOBIN / LEUKOCYTE COUNT / LYMPHOCYTE / MEAN CORPUSCULAR HEMOGLOBIN / MEAN CORPUSCULAR HEMOGLOBIN CONCENTRATION / MEAN CORPUSCULAR VOLUME / MONOCYTE / NEUTROPHIL / NUCLEATED RED BLOOD CELLS / PLATELET COUNT: tissue Blood; for ALANINE AMINOTRANSFERASE / ALBUMIN / ALKALINE PHOSPHATASE / ASPARTATE AMINOTRANSFERASE / BLOOD UREA NITROGEN / CARBON DIOXIDE / CHLORIDE / CHOLESTEROL / CREATINE PHOSPHOKINASE / CREATININE / GLUCOSE / LACTATE DEHYDROGENASE / LIPASE / PHOSPHORUS / POTASSIUM / SODIUM / TOTAL BILIRUBIN / TOTAL PROTEIN / URIC ACID: tissue Plasma
[1] = 30 mg/kg, 120 h, dose level Low, time 5 day
[2] = 3000 mg/kg, 72 h, dose level High, time 3 day
[3] = 3000 mg/kg, 120 h, dose level High, time 5 day

SMILES: CC1COc2c(N3CCN(C)CC3)c(F)cc3c(=O)c(C(=O)O)cn1c23 (centres undefined) [OFLOXACIN]
- ABSOLUTE BASOPHIL [1]: 0 CELLS/uL
- ABSOLUTE EOSINOPHIL [1]: 0 CELLS/uL
- ABSOLUTE LYMPHOCYTE [1]: 11457 CELLS/uL
- ABSOLUTE MONOCYTE [1]: 48.33 CELLS/uL
- ABSOLUTE SEGMENTED NEUTROPHIL [1]: 1361.33 CELLS/uL
- BASOPHIL [1]: 0%
- EOSINOPHIL [1]: 0%
- ERYTHROCYTE COUNT [1]: 5.63 x10E6/uL
- HEMATOCRIT [1]: 35.6%
- HEMOGLOBIN [1]: 14.27 G/DL
- LEUKOCYTE COUNT [1]: 12.87 x10E3/uL
- LYMPHOCYTE [1]: 89%
- MEAN CORPUSCULAR HEMOGLOBIN [1]: 25.37 pg
- MEAN CORPUSCULAR HEMOGLOBIN CONCENTRATION [1]: 40.07 G/DL
- MEAN CORPUSCULAR VOLUME [1]: 63.23 fL
- MONOCYTE [1]: 0.33%
- NEUTROPHIL [1]: 10.67%
- NUCLEATED RED BLOOD CELLS [1]: 0 /100WBC
- PLATELET COUNT [1]: 1227 x10E3/uL
- ALANINE AMINOTRANSFERASE [1]: 50 u/L
- ALBUMIN [1]: 4.2 G/DL
- ALKALINE PHOSPHATASE [1]: 350.67 u/L
- ASPARTATE AMINOTRANSFERASE [1]: 79 u/L
- BLOOD UREA NITROGEN [1]: 13.67 mg/dL
- CARBON DIOXIDE [1]: 33.67 mmol/L
- CHLORIDE [1]: 101.33 MEQ/L
- CHOLESTEROL [1]: 68.33 mg/dL
- CREATINE PHOSPHOKINASE [1]: 179.33 u/L
- CREATININE [1]: 0.19 mg/dL
- GLUCOSE [1]: 155.67 mg/dL
- LACTATE DEHYDROGENASE [1]: 144 u/L
- LIPASE [1]: 12.33 u/L
- PHOSPHORUS [1]: 11.93 mg/dL
- POTASSIUM [1]: 6.45 MEQ/L
- SODIUM [1]: 144.3 MEQ/L
- TOTAL BILIRUBIN [1]: 0.13 mg/dL
- TOTAL PROTEIN [1]: 5.9 G/DL
- URIC ACID [1]: 1.4 mg/dL
- ABSOLUTE BASOPHIL [2]: 0 CELLS/uL
- ABSOLUTE EOSINOPHIL [2]: 96.33 CELLS/uL
- ABSOLUTE LYMPHOCYTE [2]: 13060.67 CELLS/uL
- ABSOLUTE MONOCYTE [2]: 229.33 CELLS/uL
- ABSOLUTE SEGMENTED NEUTROPHIL [2]: 680.33 CELLS/uL
- BASOPHIL [2]: 0%
- EOSINOPHIL [2]: 0.67%
- ERYTHROCYTE COUNT [2]: 5.79 x10E6/uL
- HEMATOCRIT [2]: 36.3%
- HEMOGLOBIN [2]: 14.37 G/DL
- LEUKOCYTE COUNT [2]: 14.07 x10E3/uL
- LYMPHOCYTE [2]: 92.67%
- MEAN CORPUSCULAR HEMOGLOBIN [2]: 24.83 pg
- MEAN CORPUSCULAR HEMOGLOBIN CONCENTRATION [2]: 39.57 G/DL
- MEAN CORPUSCULAR VOLUME [2]: 62.7 fL
- MONOCYTE [2]: 1.67%
- NEUTROPHIL [2]: 5%
- NUCLEATED RED BLOOD CELLS [2]: 0 /100WBC
- PLATELET COUNT [2]: 1277.33 x10E3/uL
- ALANINE AMINOTRANSFERASE [2]: 62.33 u/L
- ALBUMIN [2]: 3.93 G/DL
- ALKALINE PHOSPHATASE [2]: 286.33 u/L
- ASPARTATE AMINOTRANSFERASE [2]: 99.33 u/L
- BLOOD UREA NITROGEN [2]: 13.33 mg/dL
- CARBON DIOXIDE [2]: 22.33 mmol/L
- CHLORIDE [2]: 105.33 MEQ/L
- CHOLESTEROL [2]: 67 mg/dL
- CREATINE PHOSPHOKINASE [2]: 1225.67 u/L
- CREATININE [2]: 0.2 mg/dL
- GLUCOSE [2]: 162.33 mg/dL
- LACTATE DEHYDROGENASE [2]: 245 u/L
- LIPASE [2]: 9.67 u/L
- PHOSPHORUS [2]: 11.1 mg/dL
- POTASSIUM [2]: 5.42 MEQ/L
- SODIUM [2]: 145.2 MEQ/L
- TOTAL BILIRUBIN [2]: 0.17 mg/dL
- TOTAL PROTEIN [2]: 5.57 G/DL
- URIC ACID [2]: 1.57 mg/dL
- ABSOLUTE BASOPHIL [3]: 0 CELLS/uL
- ABSOLUTE EOSINOPHIL [3]: 0 CELLS/uL
- ABSOLUTE LYMPHOCYTE [3]: 16402.33 CELLS/uL
- ABSOLUTE MONOCYTE [3]: 44.67 CELLS/uL
- ABSOLUTE SEGMENTED NEUTROPHIL [3]: 986.33 CELLS/uL
- BASOPHIL [3]: 0%
- EOSINOPHIL [3]: 0%
- ERYTHROCYTE COUNT [3]: 5.74 x10E6/uL
- HEMATOCRIT [3]: 35.4%
- HEMOGLOBIN [3]: 14.07 G/DL
- LEUKOCYTE COUNT [3]: 17.43 x10E3/uL
- LYMPHOCYTE [3]: 93.67%
- MEAN CORPUSCULAR HEMOGLOBIN [3]: 24.53 pg
- MEAN CORPUSCULAR HEMOGLOBIN CONCENTRATION [3]: 39.73 G/DL
- MEAN CORPUSCULAR VOLUME [3]: 61.73 fL
- MONOCYTE [3]: 0.33%
- NEUTROPHIL [3]: 6%
- NUCLEATED RED BLOOD CELLS [3]: 0 /100WBC
- PLATELET COUNT [3]: 1340 x10E3/uL
- ALANINE AMINOTRANSFERASE [3]: 60.33 u/L
- ALBUMIN [3]: 4.17 G/DL
- ALKALINE PHOSPHATASE [3]: 195 u/L
- ASPARTATE AMINOTRANSFERASE [3]: 83 u/L
- BLOOD UREA NITROGEN [3]: 14.33 mg/dL
- CARBON DIOXIDE [3]: 27 mmol/L
- CHLORIDE [3]: 104.33 MEQ/L
- CHOLESTEROL [3]: 67.33 mg/dL
- CREATINE PHOSPHOKINASE [3]: 394.67 u/L
- CREATININE [3]: 0.22 mg/dL
- GLUCOSE [3]: 147.67 mg/dL
- LACTATE DEHYDROGENASE [3]: 555.67 u/L
- LIPASE [3]: 10 u/L
- PHOSPHORUS [3]: 11.37 mg/dL
- POTASSIUM [3]: 5.87 MEQ/L
- SODIUM [3]: 144.67 MEQ/L
- TOTAL BILIRUBIN [3]: 0.13 mg/dL
- TOTAL PROTEIN [3]: 5.97 G/DL
- URIC ACID [3]: 1.67 mg/dL
